# Data published in publication PMC7502707, “Characterization and validation of a preventative therapy for hypertrophic cardiomyopathy in a murine model of the disease” (Proceedings of the National Academy of Sciences of the …, 2020).
# Marks after values point to notes of the source that are not given here.
# Columns and labels:
# [1] = test system: myocytes isolated from wt and cTnI-G203S mice; assay: Mitochondrial membrane potential (JC-1) in myocytes isolated from treated mice; type: in vivo, mouse
# Method: (§5) Male mice expressing the human cTnI gene encoding the human disease-causing mutation cTnI-G203S were used for all studies. […] Male mice expressing the normal human cTnI gene were used as controls (wt). Ten-week-old mice were used for in vitro studies. For in vivo studies, 20- or 30-wk-old cTnI-G203S mice were treated with 10 μM AID-TAT or AID[S]-TAT via intraperitoneal injection, 3×/wk/5 wk. In vivo dose of AID-TAT or AID[S]-TAT (10 μM) was calculated based on blood volume, equating to ∼2 mg/kg total BW. Male animal models were used to eliminate potential differences in responses due to sex. Experiments were performed in a total of 21 wt (AID[S]-TAT), 6 wt (AID-TAT), 15 cTnI-G203S (AID[S]-TAT), and 26 cTnI-G203S (AID-TAT) mice. All animals were randomly assigned to treatment groups.
# Fluorescence was measured on a Hamamatsu Orca ER digital camera attached to an inverted Nikon TE2000-U microscope. Fluorescent indicator 5,5′,6,6′-tetrachloro-1,1′,3,3′-tetraethylbenzimidazolylcarbocyanine iodide was used to measure Ψm in cardiac myocytes, as previously described (JC-1, Molecular Probes) ([61]). Autofluorescence was used to measure flavoprotein oxidation in cardiac myocytes based on previously described methods ([13], [29], [62]). Responses to drugs were reported as a percentage increase from the basal average.
# Cells were incubated in calcium-free HBS (supplemented with 3 mM EGTA and 200 nM JC-1) for at least 3 h prior to measuring changes in m. Sodium cyanide (NaCN, 40 mM, mitochondrial electron transport blocker) was added at the end of each experiment to collapse m, confirming that the JC-1 signal was indicative of m.
# Additionally, individual 580 nm and 535 nm wavelength signals were assessed in each experiment to determine whether the fluorescent indicator was accurately measuring m. Autofluorescence was used to measure flavoprotein oxidation in cardiac myocytes based on previously described methods (ex = 480 nm, em = 535 nm, interval = 1 min, exposure = 1.5 seconds) (4, 6, 7). Carbonyl cyanide-4-(trifluoromethoxy)phenylhydrazone (FCCP, 50 μM, mitochondrial electron transport chain uncoupler) was added at the end of each experiment to increase flavoprotein oxidation confirming signal was mitochondrial in origin. Ratiometric JC-1 or flavoprotein fluorescent signals were quantified by manually tracing myocytes and subtracting an equivalent background region
# Responses to drugs were reported as a percentage increase from the basal average. […]
# [2] = test system: myocytes isolated from wt and cTnI-G203S mice; assay: MTT assay (formation of formazan) in myocytes isolated from treated mice; type: in vivo, mouse; details: for effect on metabolic activity (MTT): myocytes from wt or cTnI-G203S mice treated with AID(S)-TAT or AID-TAT, oligomycin 20 µM; for effect on BayK(−)-induced increase in metabolic activity (MTT): applied to myocytes from treated mice, nisoldipine 15 μM, Ru360 15 µM, dantrolene 20 µM
# Method: The rate of reduction of MTT (Sigma-Aldrich) to formazan by the mitochondrial electron transport chain was measured in intact mouse cardiac myocytes, as previously described ([22], [25]). Each n represents number of replicates for each treatment group from cardiac myocytes isolated from a total of six wt [AID(S)-TAT], four cTnI-G203S [AID(S)-TAT], and three (AID-TAT) mice. Detailed methods are provided in SI Appendix. […]
# The rate of reduction of 3-(4,5-Dimethyl-2-thiazolyl)-2,5-diphenyl-2H-tetrazolium bromide (MTT, Sigma-Aldrich, St. Louis, Missouri) to formazan by the mitochondrial electron transport chain was measured in intact mouse cardiac myocytes as previously described (1, 9). This reaction is dependent upon the presence of reduced nicotinamide adenine dinucleotide (NADH) and reduced nicotinamide adenine dinucleotide phosphate (NADPH), and intact mitochondrial electron transport (10). Cardiac myocytes were treated with relevant drugs in 96 well plates. MTT was added to each well to a final concentration of 0.5 mg/ml and the rate of the increase in absorbance immediately measured using a spectrophotometer at 37°C (PowerWave XS, 570 nm, reference wavelength of 620 nm). The rate of the increase in absorbance in response to treatments was expressed as a percentage of the rate of the increase prior to the addition of treatments. Each n represents number of replicates for each treatment group from cardiac myocytes isolated from a total of 6 wt (AID[S]- TAT), 4 cTnI-G203S (AID[S]-TAT), and 3 (AID-TAT) mice.
# Immunoblot of ICa-L protein
# [3] = test system: mice expressing β-MHC mutations; details: precardiomyopathic mice expressing β-MHC mutations, compared to untreated mutants; cited from earlier work
# Excerpt: Patients with HCM often present with early hypercontractility that stems from a high-degree of actin–myosin cross-linking ([36]). […] Recent studies have investigated the efficacy of a cardiac-specific small-molecule, Mavacamten (MYK-461), that inhibits β-MHC/actin binding and subsequently reduces sarcomere force output and contractility ([39], [40]), as a potential HCM therapeutic. Treatment of precardiomyopathic mice expressing β-MHC mutations with M ...
# [4] = test system: myocytes isolated from wt and cTnI-G203S mice; assay: Flavoprotein oxidation in myocytes isolated from treated mice; type: in vivo, mouse; details: applied to myocytes from treated wt or cTnI-G203S mice; nisoldipine 15 μM
# Method: as §5
# Fluorescence was measured on a Hamamatsu Orca ER digital camera attached to an inverted Nikon TE2000-U microscope. […]
# Additionally, individual 580 nm and 535 nm wavelength signals were assessed in each experiment to determine whether the fluorescent indicator was accurately measuring m. […] Ratiometric JC-1 or flavoprotein fluorescent signals were quantified by manually tracing myocytes and subtracting an equivalent background region […]
# cTnI-G203S mice = assay: Echocardiography of treated cTnI-G203S mice; type: in vivo, mouse; details: Pre-HCM treatment (from 20 wk), 25-wk-old cTnI-G203S mice, 10 μM i.p. 3×/wk/5 wk; mean, n = 7 AID(S)-TAT, n = 6 AID-TAT
# Method: (§1) Male mice expressing the human cTnI gene encoding the human disease-causing mutation cTnI-G203S were used for all studies. The mice develop hallmark features of HCM by 21 wk ([7], [13]). Male mice expressing the normal human cTnI gene were used as controls (wt). Ten-week-old mice were used for in vitro studies. For in vivo studies, 20- or 30-wk-old cTnI-G203S mice were treated with 10 μM AID-TAT or AID[S]-TAT via intraperitoneal injection, 3×/wk/5 wk. In vivo dose of AID-TAT or AID[S]-TAT (10 μM) was calculated based on blood volume, equating to ∼2 mg/kg total BW. Male animal models were used to eliminate potential differences in responses due to sex. Experiments were performed in a total of 21 wt (AID[S]-TAT), 6 wt (AID-TAT), 15 cTnI-G203S (AID[S]-TAT), and 26 cTnI-G203S (AID-TAT) mice. All animals were randomly assigned to treatment groups. All animal studies were approved by the Animal Ethics Committee of The University of Western Australia in accordance with the 2013 Australian Code for the Care and Use of Animals for Scientific Purposes ([58]).
# (§2) Echocardiographic measurement of left ventricular function were performed on mice under light methoxyflurane anesthesia using an i13L probe on a Vivid 7 Dimension ultrasound system (GE Healthcare), as previously described ([13], [29], [30]). Each n represents the average of quantitative measurements from wt or cTnI-G203S mice for each treatment group. Detailed methods are provided in SI Appendix.
# (§3) Echocardiographic measurement of left ventricular function were performed on mice under light methoxyflurane anesthesia using an i13L probe on a Vivid 7 Dimension ultrasound system (GE Healthcare, Little Chalfont, United Kingdom) as previously described (4, 7). Echocardiographic measurements were taken on M-mode in triplicate from separate mice at a sweep speed of 200 mm/s. Each n represents the average of quantitative measurements from wt or cTnI-G203S mice for each treatment group. Measurements of left ventricular end diastolic diameter (LVEDD), left ventricular end systolic diameter (LVESD), fractional shortening (FS), left ventricular posterior wall in diastole (LVDPW), left ventricular posterior wall in systole (LVSPW), interventricular septum in diastole (IVSD), interventricular septum in systole (IVSS) and end diastolic diameter (EDD) were made. FS was calculated by the formula [(LVEDD-LVESD)/EDD] x 100. […]
# (§4) (BioAssay Systems, Hayward CA). All assays were performed as per manufacturer’s instructions, using a spectrophotometer (PowerWave XS).
# wt mice = assay: Echocardiography of treated wt mice; type: in vivo, mouse; details: 25-wk-old wt mice, 10 μM i.p. 3×/wk/5 wk from 20 wk; mean, n = 4
# Method: as §1, §2, §3, §4
# [5] = test system: myocytes isolated from wt and cTnI-G203S mice; assay: Confocal imaging of F-actin (phalloidin) in myocytes from treated mice; type: in vivo, mouse; details: myocytes from cTnI-G203S mice treated 10 μM 3×/wk/5 wk, Pre HCM Rx
# Method: Following completion of treatment regimens, myocytes were isolated and prepared for confocal imaging based on previously described methods ([29]). Detailed methods are provided in SI Appendix.
# Echocardiographic measurement of left ventricular function were performed on mice under light methoxyflurane anesthesia using an i13L probe on a Vivid 7 Dimension ultrasound system (GE Healthcare, Little Chalfont, United Kingdom) as previously described (4, 7). Echocardiographic measurements were taken on M-mode in triplicate from separate mice at a sweep speed of 200 mm/s. Each n represents the average of quantitative measurements from wt or cTnI-G203S mice for each treatment group. […] FS was calculated by the formula [(LVEDD-LVESD)/EDD] x 100.
# Cell size was determined as previously described (16). […]
# To measure kidney toxicity, urea and creatinine concentration was assessed using QuantiChrom Urea and Creatinine assay kits respectively (BioAssay Systems, Hayward CA). To measure liver toxicity, alanine transaminase (ALT) and aspartate transaminase (AST) concentration was measured using Alanine Transaminase and Aspartate Transaminase assay kits respectively (BioAssay Systems, Hayward CA). […]
molecule,measurement,setting,value
"COC(=O)C1=C(C)NC(C)=C([N+](=O)[O-])C1c1ccccc1C(F)(F)F (stereo not drawn) [BayK(+), reference compound]",effect on Ψm,[1]; myocytes from wt or cTnI-G203S mice treated with AID(S)-TAT or AID-TAT,did not significantly alter Ψm
same,effect on metabolic activity (MTT),[2],did not significantly alter metabolic activity
"CC(C)n1c(=O)cc(N[C@@H](C)c2ccccc2)[nH]c1=O [MYK-461, Mavacamten]","left ventricular wall thickness, FS, fibrosis and myocyte organization",[3],"reduce left ventricular wall thickness, FS, and fibrosis, and improve myocyte organization"
CC[C@H]1/C=C/C=C/C[C@@H](C)[C@H](O)[C@@](C)(O)C(=O)[C@@H](C)[C@H](O)[C@@H](C)C(=O)[C@@H](C)[C@H](O)[C@@H](C)/C=C/C(=O)O[C@@H]2[C@H](C)[C@H](CC1)O[C@]1(CC[C@H](C)[C@H](C[C@@H](C)O)O1)[C@H]2C [Oligomycin],effect on metabolic activity (MTT),[2],significant decrease in metabolic activity
O=C1CN(/N=C/c2ccc(-c3ccc([N+](=O)[O-])cc3)o2)C(O)=N1 [dantrolene],effect on BayK(−)-induced increase in metabolic activity (MTT),[2],but not with ryanodine receptor blocker dantrolene
"COC(=O)C1=C(C)NC(C)=C(C(=O)OCC(C)C)C1c1ccccc1[N+](=O)[O-] (centres unmarked) [nisoldipine, reference compound]",effect on BayK(−)-induced increase in Ψm,"[1]; applied to myocytes from treated wt or cTnI-G203S mice, nisoldipine 15 μM",attenuated
same,effect on BayK(−)-induced increase in flavoprotein oxidation,[4],attenuated
same,effect on BayK(−)-induced increase in metabolic activity (MTT),[2],attenuated
"QKILGEWDLAQYTDQELE [AID(S)-TAT, reference compound]",FS,cTnI-G203S mice,47.39 ^* %
same,HW:BW,cTnI-G203S mice,5.14 ^* mg/g
same,IVSD,cTnI-G203S mice,0.85 ^* mm
same,IVSS,cTnI-G203S mice,0.96 ^* mm
same,LVDPW,cTnI-G203S mice,1.31 mm
same,LVEDD,cTnI-G203S mice,3.08 ^* mm
same,LVESD,cTnI-G203S mice,1.62 ^* mm
same,LVSPW,cTnI-G203S mice,1.43 mm
same,FS,wt mice,35.08%
same,HW:BW,wt mice,4.33 mg/g
same,IVSD,wt mice,0.76 mm
same,IVSS,wt mice,0.86 mm
same,LVDPW,wt mice,1.26 mm
same,LVEDD,wt mice,3.56 mm
same,LVESD,wt mice,2.31 mm
same,LVSPW,wt mice,1.42 mm
same,F-actin organization,[5],F-actin disorganization
Ru360,effect on BayK(−)-induced increase in metabolic activity (MTT),[2],attenuated
